Assay results reported in patent publication US11111245B2, “Derivatives of N-cycloalkyl/heterocycloalkyl-4-(imidazo[1,2-a]pyridine)pyrimidin-2-amine as therapeutic agents” (Aucentra Therapeutics Pty Ltd, priority 2017, dated 2021).

Legend:
[1] = molecular target: CDK6/D3 (Homo sapiens, UniProt Q00534); experiment: ADP Glo Kinase assay CDK6/D3; format: biochemical; settings: CDK6D3; compound at 10 μM; read-out: residual activity (%) at 10 μM CDK6D3
Summary of the method: (§1)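 CDK4/D1 and CDK6/D3 were run in […] Tris pH 7.5, 20 mM MgCl2, 0.4 mM DTT, 0.1 mg/ml BSA with RB-CTF substrate; CDK9/T1 used RBER-IRStide. ATP-started reactions ran 40 min at 37° C, with ADP Glo luminescence read-out. IC50 came from 4-parameter fits; Ki from Km (ATP) and IC50.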

[2] = test system: leukemia cell lines; experiment: Resazurin cell viability assay on leukemia cell lines (72 h growth inhibition, GI50); format: cell-based; settings: Homo sapiens, MV4-11 cells
Summary of the method: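 Solid tumour cells: MTT. Leukaemia cells: resazurin. GI50 fitted by non-linear regression.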

[3] = molecular target: CDK9/T1 (Homo sapiens, UniProt P50750); experiment: ADP Glo Kinase assay CDK9/T1; format: biochemical; settings: CDK9T1; read-out: CDK inhibition, Ki (μM) CDK9T1
Summary of the method: (§2)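 Other CDKs and further kinases were profiled externally by radiometric assay. In-house ADP Glo assays covered CDK4/D1 and CDK6/D3 (RB-CTF substrate, pH 7.5 Tris buffer with MgCl2, DTT, BSA) and CDK9/T1 (RBER-IRStide substrate), 40 min at 37° C.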

[4] = molecular target: T1, CDKs and other kinases (Homo sapiens, UniProt P50613); experiment: Radiometric kinase assay (Eurofins Pharma Discovery or Reaction Biology Corporation Kinase Profiler); format: biochemical; settings: CDK7H; for Ki: read-out: CDK inhibition, Ki (μM) CDK7H; for remaining activity at 10 µM: compound at 10 μM, read-out: residual activity (%) at 10 μM CDK7H
T1 construct: other: CDK7H; residual activity (%) at 10 μM CDK7H; compound at 10 μM
Summary of the method: as §2

[5] = molecular target: T2, CDKs and other kinases (Homo sapiens, UniProt P24941); experiment: as above; format: biochemical; settings: CDK2A; for Ki: read-out: CDK inhibition, Ki (μM) CDK2A; for remaining activity at 10 µM: compound at 10 μM, read-out: residual activity (%) at 10 μM CDK2A
T2 construct: other: CDK2A; residual activity (%) at 10 μM CDK2A; compound at 10 μM
Summary of the method: as §2

[6] = molecular target: T3, CDKs and other kinases (Homo sapiens, UniProt P06493); experiment: as above; format: biochemical; settings: CDK1B; for Ki: read-out: CDK inhibition, Ki (μM) CDK1B; for remaining activity at 10 µM: compound at 10 μM, read-out: residual activity (%) at 10 μM CDK1B
T3 construct: other: CDK1B; residual activity (%) at 10 μM CDK1B; compound at 10 μM
Summary of the method: as §2

[7] = molecular target: CDK4/D1 (Homo sapiens, UniProt P11802); experiment: ADP Glo Kinase assay CDK4/D1; format: biochemical; settings: CDK4D1; for remaining activity at 10 µM: compound at 10 μM, read-out: residual activity (%) at 10 μM CDK4D1
Summary of the method: as §1

Sequence of CDK6/D3 (Q00534 whole entry): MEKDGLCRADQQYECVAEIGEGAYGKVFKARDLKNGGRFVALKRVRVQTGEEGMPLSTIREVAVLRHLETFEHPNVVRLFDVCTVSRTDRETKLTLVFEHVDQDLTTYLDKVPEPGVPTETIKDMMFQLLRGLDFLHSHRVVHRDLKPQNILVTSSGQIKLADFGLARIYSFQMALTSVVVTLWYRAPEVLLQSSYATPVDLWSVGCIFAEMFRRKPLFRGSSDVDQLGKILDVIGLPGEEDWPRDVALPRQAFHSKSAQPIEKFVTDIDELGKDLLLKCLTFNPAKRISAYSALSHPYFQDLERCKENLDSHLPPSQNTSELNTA
Sequence of CDK6/D3 (P30281 whole entry partner): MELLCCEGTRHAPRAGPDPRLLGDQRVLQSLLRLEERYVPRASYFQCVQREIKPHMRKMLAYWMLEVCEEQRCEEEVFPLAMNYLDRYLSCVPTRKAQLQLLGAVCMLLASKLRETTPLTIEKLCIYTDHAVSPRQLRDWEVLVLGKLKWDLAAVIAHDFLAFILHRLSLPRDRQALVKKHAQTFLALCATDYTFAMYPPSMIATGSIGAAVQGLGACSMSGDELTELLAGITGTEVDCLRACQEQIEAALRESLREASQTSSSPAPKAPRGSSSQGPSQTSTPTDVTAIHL
T3 sequence (P06493 whole entry): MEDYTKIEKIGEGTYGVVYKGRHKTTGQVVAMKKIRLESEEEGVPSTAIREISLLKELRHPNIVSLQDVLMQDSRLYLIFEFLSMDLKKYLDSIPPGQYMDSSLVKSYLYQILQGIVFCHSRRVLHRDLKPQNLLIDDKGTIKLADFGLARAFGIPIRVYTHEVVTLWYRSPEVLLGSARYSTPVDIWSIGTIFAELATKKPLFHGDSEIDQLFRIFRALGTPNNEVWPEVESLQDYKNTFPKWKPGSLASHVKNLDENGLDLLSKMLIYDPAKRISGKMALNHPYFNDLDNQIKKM
Sequence of CDK9/T1 (P50750 whole entry): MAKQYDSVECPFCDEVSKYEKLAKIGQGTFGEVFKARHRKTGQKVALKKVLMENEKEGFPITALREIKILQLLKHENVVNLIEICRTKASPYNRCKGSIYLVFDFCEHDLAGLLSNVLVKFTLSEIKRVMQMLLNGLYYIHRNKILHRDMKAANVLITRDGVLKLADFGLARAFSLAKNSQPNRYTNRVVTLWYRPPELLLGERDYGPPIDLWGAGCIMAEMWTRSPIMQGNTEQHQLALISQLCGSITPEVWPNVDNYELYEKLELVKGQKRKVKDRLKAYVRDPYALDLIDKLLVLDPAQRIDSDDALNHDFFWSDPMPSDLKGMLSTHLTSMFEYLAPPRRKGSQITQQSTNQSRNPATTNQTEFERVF
Sequence of CDK9/T1 (O60563 whole entry partner): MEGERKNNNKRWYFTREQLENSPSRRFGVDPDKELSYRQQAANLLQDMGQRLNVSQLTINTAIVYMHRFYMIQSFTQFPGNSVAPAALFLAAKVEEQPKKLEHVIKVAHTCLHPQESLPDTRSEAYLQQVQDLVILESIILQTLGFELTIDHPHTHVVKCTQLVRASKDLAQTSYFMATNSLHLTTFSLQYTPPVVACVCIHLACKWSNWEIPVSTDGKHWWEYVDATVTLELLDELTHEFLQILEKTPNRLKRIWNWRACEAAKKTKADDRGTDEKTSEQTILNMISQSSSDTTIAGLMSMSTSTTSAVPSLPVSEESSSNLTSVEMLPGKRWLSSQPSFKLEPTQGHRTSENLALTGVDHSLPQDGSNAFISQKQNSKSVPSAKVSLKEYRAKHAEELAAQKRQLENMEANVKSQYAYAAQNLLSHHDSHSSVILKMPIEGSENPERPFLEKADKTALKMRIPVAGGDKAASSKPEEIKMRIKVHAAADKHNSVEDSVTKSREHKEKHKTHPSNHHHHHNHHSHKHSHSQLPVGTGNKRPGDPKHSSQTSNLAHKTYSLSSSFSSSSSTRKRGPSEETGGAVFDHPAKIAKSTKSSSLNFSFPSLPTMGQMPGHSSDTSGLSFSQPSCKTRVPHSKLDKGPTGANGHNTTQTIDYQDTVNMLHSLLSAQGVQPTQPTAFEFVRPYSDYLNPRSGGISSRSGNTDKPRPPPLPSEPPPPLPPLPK
T1 sequence (P50613 whole entry): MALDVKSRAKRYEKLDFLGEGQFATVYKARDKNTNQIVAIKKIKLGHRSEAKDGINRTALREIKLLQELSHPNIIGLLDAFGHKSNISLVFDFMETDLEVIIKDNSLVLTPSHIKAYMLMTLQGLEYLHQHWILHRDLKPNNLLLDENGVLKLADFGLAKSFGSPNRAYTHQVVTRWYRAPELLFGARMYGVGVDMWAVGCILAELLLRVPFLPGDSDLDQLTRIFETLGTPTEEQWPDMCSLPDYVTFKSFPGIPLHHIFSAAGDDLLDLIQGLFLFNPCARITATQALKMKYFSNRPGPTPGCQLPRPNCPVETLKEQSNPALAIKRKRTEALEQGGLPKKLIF
Sequence of CDK4/D1 (P11802 whole entry): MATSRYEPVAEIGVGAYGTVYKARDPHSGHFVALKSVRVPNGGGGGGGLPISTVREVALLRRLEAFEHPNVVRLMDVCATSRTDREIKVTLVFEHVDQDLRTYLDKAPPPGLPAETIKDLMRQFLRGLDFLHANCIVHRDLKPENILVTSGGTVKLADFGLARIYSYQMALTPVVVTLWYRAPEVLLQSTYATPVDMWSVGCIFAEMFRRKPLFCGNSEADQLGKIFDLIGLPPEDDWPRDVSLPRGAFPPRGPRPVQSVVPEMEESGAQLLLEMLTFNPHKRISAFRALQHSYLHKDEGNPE
Sequence of CDK4/D1 (P24385 whole entry partner): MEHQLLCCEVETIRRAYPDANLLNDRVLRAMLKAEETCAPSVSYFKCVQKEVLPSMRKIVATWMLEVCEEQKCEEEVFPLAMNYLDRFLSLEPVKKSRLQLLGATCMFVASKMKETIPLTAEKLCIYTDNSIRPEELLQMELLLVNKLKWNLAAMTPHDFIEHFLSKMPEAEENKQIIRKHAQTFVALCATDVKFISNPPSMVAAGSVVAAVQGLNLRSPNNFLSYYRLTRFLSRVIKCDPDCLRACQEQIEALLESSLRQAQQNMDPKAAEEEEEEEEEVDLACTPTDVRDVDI

SMILES | remaining activity at 10 µM [1] [%] | GI50 [2] [µM] | Ki [3] [µM] | Ki [4] [µM] | Ki [5] [µM] | Ki [6] [µM] | remaining activity at 10 µM [7] [%] | remaining activity at 10 µM [4] [%] | remaining activity at 10 µM [5] [%] | remaining activity at 10 µM [6] [%] | residual activity at 10 µM [7] [%]
Cc1cnc(N[C@H]2CC[C@H](N)CC2)nc1-c1cnc2ccc(-c3c(C)noc3C)cn12 [Compound 59, (1r,4r)-N^1-(4-(6-(3,5-Dimethylisoxazol-4-yl)imidazo [1,2-a]pyridin-3-yl)-5-methylpyrimidin-2-yl) cyclohexane-1,4-diamine] | 91 | 0.274 ± 0.064 | 0.072 | 2.39 | 0.92 | 2.68 | 55 |  |  |  | 
Cc1cnc(N[C@H]2CC[C@H](N)CC2)nc1-c1cnc2ccc(-c3ccc(N4CCOCC4)nc3)cn12 [Compound 61, (1r,4r)-N^1-(5-Methyl-4-(6-(6-morpholinopyridin-3-yl)imidazo[1,2-a]pyridin-3-yl)pyrimidin-2-yl)cyclohexane-1,4-diamine] | 89 | 0.083 ± 0.035 | 0.49 |  |  |  | 17 | 37 | 63 | 79 | 
Cc1cnc(N[C@H]2CC[C@H](N)CC2)nc1-c1cnc2ccc(-c3ccoc3)cn12 [Compound 63, (1r,4r)-N^1-(4-(6-(Furan-3-yl)imidazo[1,2-a]pyridin-3-yl)-5-methylpyrimidin-2-yl)cyclohexane-1,4-diamine] | 29 | 0.095 ± 0.031 | 0.054 |  |  |  | 38 | 18 | 6 | 18 | 
CCOc1ccc(Nc2ccc3ncc(-c4nc(N[C@H]5CC[C@H](N)CC5)ncc4C)n3c2)cn1 [Compound 67, (1r,4r)-N^1-(4-(6-((6-Ethoxypyridin-3-yl)amino)imidazo [1,2-a]pyridin-3-yl)-5-methylpyrimidin-2-yl)cyclohexane-1,4-diamine] | 29 | 0.128 ± 0.04 | 0.017 |  |  |  | 31 | 52 | 10 | 38 | 

The remaining compounds from weak to strong by GI50 [2], led by results:

remaining activity at 10 µM [1] [%] | GI50 [2] [µM] | Ki [3] [µM] | Ki [4] [µM] | Ki [5] [µM] | Ki [6] [µM] | remaining activity at 10 µM [7] [%] | remaining activity at 10 µM [4] [%] | remaining activity at 10 µM [5] [%] | remaining activity at 10 µM [6] [%] | residual activity at 10 µM [7] [%] | SMILES
38 | 0.155 ± 0.054 | 0.016 | 1.44 | 0.59 | 2.37 | 1 |  |  |  |  | Cc1cncc(Nc2ccc3ncc(-c4nc(N[C@H]5CC[C@H](N)CC5)ncc4C)n3c2)c1 [Compound 64, (1r,4r)-N^1-(5-Methyl-4-(6-((5-methylpyridin-3-yl)amino)imidazo[1,2-a]pyridin-3-yl)pyrimidin-2-yl)cyclohexane-1,4-diamine]
23 | 0.127 ± 0.002 | 0.033 | 0.71 | 0.35 | 2.18 | 37 |  |  |  |  | Cc1cnc(N[C@H]2CC[C@H](N)CC2)nc1-c1cnc2ccc(Nc3ccc(OC(F)F)nc3)cn12 [Compound 68, (1r,4r)-N^1-(4-(6-((6-(Difluoromethoxy)pyridin-3-yl)amino)imidazo[1,2-a]pyridin-3-yl)-5-methylpyrimidin-2-yl) cyclohexane-1,4-diamine]
89 | 0.057 ± 0.006 | 0.41 |  |  |  |  | 37 | 62 | 57 | 115 | Cc1cnc(N[C@H]2CC[C@H](N)CC2)nc1-c1cnc2ccc(-c3ccc(CN4CCOCC4)cc3)cn12 [Compound 60, (1r,4r)-N^1-(5-Methyl-4-(6-(4-(morpholinomethyl)phenyl)imidazo[1,2-a]pyridin-3-yl)pyrimidin-2-yl)cyclohexane-1,4-diamine]
87 | 0.025 ± 0.009 | 0.497 |  |  |  | 63 | 60 | 72 | 87 |  | Cc1cnc(N[C@H]2CC[C@H](N)CC2)nc1-c1cnc2ccc(-c3ccc(S(=O)(=O)N(C)C)cc3)cn12 [Compound 62, 4-(3-(2-(((1r,4r)-4-Aminocyclohexyl)amino)-5-methylpyrimidin-4-yl)imidazo[1,2-a]pyridin-6-yl)-N,N-dimethylbenzenesulfonamide]
